Measurements published in PubChem BioAssay AID244 (DTP/NCI, 2004).
Several values for one entry are separate records, joined by “and”; a condition that tells them apart may be missing. Equal values may be shown once. Results filed as inconclusive are left out. The calls were made as follows: active = survival T/C of 150% or more; inactive = T/C below 125% in these data. *1 amine or outer side, *2 acyl side, *3 side chain or, on linkers, in order; H or OH if unused. Where a SMILES comes first, the peptide text is derived from it. Bridges are numbered along the chain shown (N, C = ends). Roman numbers before positions name the chains, in order. [ ]: non-standard residue; d: D form. Actinocin(9to1) = Cc1c2oc3c(C)ccc(C(=O)[*:1])c3nc-2c(C(=O)[*:2])c(N)c1=O; aThr = C[C@H](O)[C@H](N)C(=O)O; NMeV = CN[C@H](C(=O)O)C(C)C; Sar = CNCC(=O)O

Tested on: CD2F1 mice, Lymphoma 8 ip, survival T/C
Experiment: NCI In Vivo Anticancer Drug Screen. Data for tumor model Lymphoma 8 (intraperitoneal) in CD2F1 (CDF1) mice
Settings: vehicle: saline, higher = longer survival
Description: The antitumor activity of compounds was measured in mice bearing transplantable tumors. Survival or tumor size were measured and the results are expressed as the measurement made in the treated group (T) divided by the measurement made in the vehicle treated control group (C). The tumor model used in this assay is Lymphoma 8 (intraperitoneal) in CD2F1 (CDF1) mice

Measured: T/C

Cc1c2oc3c(C)ccc(C(=O)N[C@@H]4C(=O)N[C@H](C(C)C)C(=O)N5CCC[C@H]5C(=O)N(C)CC(=O)N(C)[C@@H](C(C)C)C(=O)O[C@H]4C)c3nc-2c(C(=O)N[C@@H]2C(=O)N[C@H](C(C)C)C(=O)N3CCC[C@H]3C(=O)N(C)CC(=O)N(C)[C@@H](C(C)C)C(=O)O[C@H]2C)c(N)c1=O (I: [aThr][dV]P[Sar][NMeV] / II: [aThr][dV]P[Sar][NMeV]; ester I:1-I:C, II:1-II:C; linker I:N-II:N via Actinocin(9to1))
inactive: endpoint: median survival time, dose: 0.05 mg/kg/injection, schedule: Q01DX002 (ip) 103 % of control | endpoint: median survival time, dose: 0.05 mg/kg/injection, schedule: Q04DX002 (ip) 100 % of control | endpoint: median survival time, dose: 0.1 mg/kg/injection, schedule: Q04DX002 (ip) 92 % of control | endpoint: median survival time, dose: 0.2 mg/kg/injection, schedule: Q01DX002 (ip) 106 % of control | endpoint: median survival time, dose: 0.2 mg/kg/injection, schedule: Q04DX002 (ip) 100 % of control

O=C1C=CC(=O)N1
inactive: endpoint: median survival time, dose: 0.25 mg/kg/injection, schedule: Q01DX009 (ip) 98 % of control and 109 % of control | endpoint: median survival time, dose: 0.5 mg/kg/injection, schedule: Q01DX009 (ip) 100 % of control and 102 % of control | endpoint: median survival time, dose: 1.0 mg/kg/injection, schedule: Q01DX009 (ip) 95 % of control and 102 % of control | endpoint: median survival time, dose: 2.0 mg/kg/injection, schedule: Q01DX009 (ip) 94 % of control and 95 % of control

CC(=O)Nc1c(Cl)cc2c(c1Cl)Cc1cc([N+](=O)[O-])ccc1-2
inactive: endpoint: survival time, mean or median, dose: 3.9 mg/kg/injection, schedule: Q01DX010 (ip) 87 % of control

C[C@H]1C(=O)O[C@@H]2CCN3CC=C(COC(=O)[C@](C)(O)[C@@]1(C)O)[C@H]23
inactive: endpoint: survival time, mean or median, dose: 3.13 mg/kg/injection, schedule: Q01DX010 (ip) 100 % of control | endpoint: survival time, mean or median, dose: 6.25 mg/kg/injection, schedule: Q01DX010 (ip) 100 % of control | endpoint: survival time, mean or median, dose: 12.5 mg/kg/injection, schedule: Q01DX010 (ip) 100 % of control | endpoint: survival time, mean or median, dose: 25.0 mg/kg/injection, schedule: Q01DX010 (ip) 100 % of control

O=C1C=C(C2OC(CO)C(O)C2O)C(=O)N1 (stereo not drawn)
inactive: endpoint: median survival time, dose: 2.0 mg/kg/injection, schedule: Q01DX010 (ip) 92 % of control | endpoint: median survival time, dose: 4.0 mg/kg/injection, schedule: Q01DX010 (ip) 92 % of control | endpoint: median survival time, dose: 8.0 mg/kg/injection, schedule: Q01DX005 (ip) 75 % of control | endpoint: median survival time, dose: 8.0 mg/kg/injection, schedule: Q01DX010 (ip) 100 % of control | endpoint: median survival time, dose: 16.0 mg/kg/injection, schedule: Q01DX005 (ip) 43 % of control | endpoint: median survival time, dose: 32.0 mg/kg/injection, schedule: Q01DX005 (ip) 17 % of control

CCSCCC(N)C(=O)O (stereo not drawn)
inactive: endpoint: median survival time, dose: 37.5 mg/kg/injection, schedule: Q01DX005 (ip) 107 % of control and 109 % of control | endpoint: median survival time, dose: 75.0 mg/kg/injection, schedule: Q01DX005 (ip) 100 % of control and 103 % of control | endpoint: median survival time, dose: 150.0 mg/kg/injection, schedule: Q01DX005 (ip) 81 % of control
